From ChEMBL document CHEMBL2380259, “Indazole-based potent and cell-active Mps1 kinase inhibitors: rational design from pan-kinase inhibitor anthrapyrazolone (SP600125)” (J Med Chem, 2013) come the findings set out here.

In data set [1] the target is Mitogen-activated protein kinase 8 (Homo sapiens, UniProt P45983). The data set is described as follows: Inhibition of JNK1 (unknown origin) using ATF2 as substrate measured after 1 hr by ELISA. (In general: ELISA stands for enzyme-linked immunosorbent assay.)
Mitogen-activated protein kinase 8, sequence (P45983 whole entry): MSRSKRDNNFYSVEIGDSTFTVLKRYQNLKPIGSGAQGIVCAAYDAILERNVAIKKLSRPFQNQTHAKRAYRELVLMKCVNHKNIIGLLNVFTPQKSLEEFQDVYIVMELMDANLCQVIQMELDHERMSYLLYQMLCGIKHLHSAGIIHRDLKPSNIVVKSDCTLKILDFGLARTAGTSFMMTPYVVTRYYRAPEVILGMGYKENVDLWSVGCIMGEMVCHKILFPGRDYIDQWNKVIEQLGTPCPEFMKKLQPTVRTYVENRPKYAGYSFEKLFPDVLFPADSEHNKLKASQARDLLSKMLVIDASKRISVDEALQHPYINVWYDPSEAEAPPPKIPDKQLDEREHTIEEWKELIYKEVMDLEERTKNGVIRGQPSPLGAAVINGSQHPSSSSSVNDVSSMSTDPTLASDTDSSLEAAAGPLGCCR
The target in data set [2] is T1, Dual specificity protein kinase TTK (Homo sapiens, UniProt P33981).
T1 sequence (P33981 whole entry): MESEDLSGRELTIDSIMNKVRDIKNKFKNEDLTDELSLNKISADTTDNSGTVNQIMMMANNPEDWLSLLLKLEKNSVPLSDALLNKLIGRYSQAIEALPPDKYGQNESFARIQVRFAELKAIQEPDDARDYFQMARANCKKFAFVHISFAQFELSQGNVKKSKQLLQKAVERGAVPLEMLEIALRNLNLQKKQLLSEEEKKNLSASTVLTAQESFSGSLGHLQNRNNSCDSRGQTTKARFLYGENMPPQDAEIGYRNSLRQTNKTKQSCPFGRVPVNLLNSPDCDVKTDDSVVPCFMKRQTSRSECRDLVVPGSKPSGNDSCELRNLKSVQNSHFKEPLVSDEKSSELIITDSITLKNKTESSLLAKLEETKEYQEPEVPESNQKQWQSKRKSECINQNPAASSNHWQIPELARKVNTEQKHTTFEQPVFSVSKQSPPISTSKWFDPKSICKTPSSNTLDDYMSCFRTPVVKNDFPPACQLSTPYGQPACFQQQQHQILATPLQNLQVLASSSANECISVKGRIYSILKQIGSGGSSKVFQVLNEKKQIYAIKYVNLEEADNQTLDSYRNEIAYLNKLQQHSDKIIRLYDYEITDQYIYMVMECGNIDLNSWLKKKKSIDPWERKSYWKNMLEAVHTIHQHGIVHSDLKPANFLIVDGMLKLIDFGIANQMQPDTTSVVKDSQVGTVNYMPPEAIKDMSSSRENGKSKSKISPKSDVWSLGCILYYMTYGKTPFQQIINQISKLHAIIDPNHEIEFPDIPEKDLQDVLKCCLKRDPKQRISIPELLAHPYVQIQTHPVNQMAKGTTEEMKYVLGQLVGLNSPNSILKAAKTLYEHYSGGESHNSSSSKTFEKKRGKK
Briefly: Inhibition of MPS1 (unknown origin) using biotin-labeled AGAGLARHTDDEMTGYVA as substrate after 90 mins by DELFIA.

The nature of data set [3]: Lipophilicity index, log K of the compound by RP-HPLC analysis. The format is physicochemical.
Data set [4] has as its target T1, Dual specificity protein kinase TTK. The data set is described as follows: Inhibition of FLAG-tagged MPS1 phosphorylation in human RERF-LC-AI Tet-off cells after 3 hrs. The format is cell-based.
Data set [5] has as its system A549. Briefly: cells. The settings on record: Homo sapiens, A549, 72 h.
Data set [6] in a line: Oral bioavailability in Sprague-Dawley rat at 1 mg/kg by LC-MS/MS analysis. The settings on record: in vivo. The format is ADME, organism-based.
Data set [7] in a line: Cmax in Sprague-Dawley rat at 1 mg/kg, po by LC-MS/MS analysis. The format is ADME, organism-based. On the set-up: dose 1 mg/kg, route oral. The settings on record: in vivo.
The nature of data set [8]: AUC in Sprague-Dawley rat at 1 mg/kg, po by LC-MS/MS analysis. It counts as ADME, organism-based. On the set-up: dose 1 mg/kg, route oral. The settings on record: plasma.
Data set [9] in a line: Volume of distribution at steady state in Sprague-Dawley rat at 0.5 mg/kg, iv by LC-MS/MS analysis. The format is ADME, organism-based. On the set-up: dose 0.5 mg/kg, route intravenous. The following applies: in vivo, read-out: Vdss.
Data set [10] can be described thus: Clearance in Sprague-Dawley rat at 0.5 mg/kg, iv by LC-MS/MS analysis. On the set-up: dose 0.5 mg/kg, route intravenous. The settings on record: in vivo. The format is ADME, organism-based.
Data set [11] is described as follows: Metabolic stability in Sprague-Dawley rat hepatocytes assessed as compound remaining at 2 uM after 1 hr by LC-MS/MS analysis. It counts as ADME, cell-based, Hepatocyte. The settings on record: read-out: Stability.
Data set [12] concerns the target Serine/threonine-protein kinase PLK1 (Homo sapiens, UniProt P53350). Briefly: Inhibition of human PLK1.
Data set [13] is described as follows: Apparent permeability across MDCK cells. It counts as ADME, cell-based, Canis lupus familiaris. The settings on record: dog.
Data set [14] has as its target T1, Dual specificity protein kinase TTK.

Serine/threonine-protein kinase PLK1, sequence (P53350 whole entry): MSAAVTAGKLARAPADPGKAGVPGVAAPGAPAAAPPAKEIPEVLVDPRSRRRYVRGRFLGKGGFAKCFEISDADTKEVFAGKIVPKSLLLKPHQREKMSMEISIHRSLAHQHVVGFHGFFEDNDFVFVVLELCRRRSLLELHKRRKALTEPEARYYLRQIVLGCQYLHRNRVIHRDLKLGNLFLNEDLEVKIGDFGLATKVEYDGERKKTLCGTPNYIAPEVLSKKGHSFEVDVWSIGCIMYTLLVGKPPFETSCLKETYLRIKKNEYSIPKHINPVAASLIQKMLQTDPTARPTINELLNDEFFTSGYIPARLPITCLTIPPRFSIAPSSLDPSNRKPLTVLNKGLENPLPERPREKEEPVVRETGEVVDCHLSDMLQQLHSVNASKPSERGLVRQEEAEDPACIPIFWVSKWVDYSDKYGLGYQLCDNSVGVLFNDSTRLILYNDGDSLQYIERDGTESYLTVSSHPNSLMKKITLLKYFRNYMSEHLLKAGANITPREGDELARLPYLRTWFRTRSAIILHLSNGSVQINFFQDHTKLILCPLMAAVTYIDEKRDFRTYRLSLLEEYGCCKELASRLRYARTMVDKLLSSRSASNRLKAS

A word on the IC50: it is the concentration that inhibits the measured activity by half. The low end stands for higher potency, the high end for lower potency. Turning to `CCOc1ccc2[nH]nc(-c3cccc(NC(C)=O)c3)c2c1`, the values for the IC50 in [1] and in data set [2] were 79.5 nM and 116 nM, respectively.
In data set [2], `CCOc1ccc2[nH]nc(-c3ccccc3)c2c1` showed an IC50 of 498 nM.
For `CCOc1ccc2[nH]nc(-c3cccc(S(N)(=O)=O)c3)c2c1`, the “log K” value in data set [3] was 0.79. Also, the IC50 in [4] is 2740 nM; in data set [1] it was 150 nM; in data set [2] it was 28 nM; in data set [5], over 20000 nM.
One may read the bioavailability as the share of a dose that reaches the circulation, judged against a reference dose that is usually intravenous. Usually Cmax stands for the highest concentration seen after dosing. Usually AUC stands for concentration integrated over time. Higher therefore signals more exposure. One may read the clearance as a measure of how efficiently the substance is removed, as volume per time. A high value points to a high capacity for elimination. As usually defined, the Papp is the rate of passage across a membrane or cell layer, normalised by area and donor concentration. `CC(=O)Nc1cccc(-c2n[nH]c3cc(-c4cnn(C)c4)c(NC4CCCCC4)cc23)c1`: in data set [6], the bioavailability stood at 17%. This compound displayed a Cmax in [7] of 18 ng/mL. Also, the AUC in data set [8] was 149 ng·h/mL. In addition, the Vd in data set [9] is 1 L/kg. The same compound registered a clearance in [10] of 19 mL/min/kg. For the same compound, the remaining at 1 h, 2 µM in [11] came out at 64%. The IC50 in data set [12] was over 5000 nM; in data set [4], 30.4 nM; in [1], 12.1 nM; in [2], 12 nM; in [5] it was 283 nM. For the same compound, the apparent permeability (Papp) in [13] turned out to be 20.5 ×10⁻⁶ cm/s. In addition, the “log K” value in [3] is 0.94.
With `CCOc1cc2c(-c3cccc(S(N)(=O)=O)c3)n[nH]c2cc1-c1ccccc1`, the “log K” value in data set [3] was 0.91. The IC50 is over 10000 nM in data set [4], 1030 nM in data set [1], 173 nM in data set [2] and over 10000 nM in [5].
As to `CCOc1cc2c(-c3cccc(S(N)(=O)=O)c3)n[nH]c2cc1-c1cnn(CC(C)C)c1`, the “log K” value in [3] came out at 0.87. Further, the half-maximal inhibitory concentration (IC50) in data set [4] was determined as 4110 nM; in [1], 441 nM; in data set [2] it was 119 nM; in data set [5] it was 6460 nM.
Take `Oc1c2ccccc2c2c3c(cccc13)N=N2` [SP-600125]: the IC50 in [14] is 98 nM.
Consider `CCOc1cc2c(-c3ccc(C)c(S(N)(=O)=O)c3)n[nH]c2cc1-c1cnn(C)c1`, for which the “log K” value in data set [3] amounted to 0.82. For the same compound, the IC50 in data set [4] was determined as 198 nM; in data set [1], 43.5 nM; in data set [2], 3.67 nM; in data set [5], 686 nM.
As for `CCOc1cc2c(-c3cccc(S(N)(=O)=O)c3)n[nH]c2cc1C#N`, the “log K” value in [3] came to 0.86. Also, the concentration for half-maximal inhibition (IC50) was 3350 nM in data set [4], 175 nM in data set [1], 17 nM in data set [2] and over 20000 nM in data set [5].
In the case of `Cn1cc(-c2cc3[nH]nc(-c4cccc(S(N)(=O)=O)c4)c3cc2OC2CCCCC2)cn1`, the “log K” value in [3] is recorded as 0.93. For the same compound, the IC50 was determined as 74 nM in data set [4], 118 nM in data set [1], 7.93 nM in data set [2] and 646 nM in data set [5].
As for `CCOc1cc2c(-c3cccc(S(N)(=O)=O)c3)n[nH]c2cc1-c1cnn(C)c1`, the apparent permeability coefficient (Papp) in [13] came to 0.6 ×10⁻⁶ cm/s. In addition, the “log K” value in [3] was determined as 0.79. The IC50 was found to be 85.8 nM in data set [4], 93.7 nM in [1], 3.06 nM in data set [2] and 1020 nM in [5].
Consider `CCOc1cc2c(-c3cccc(S(N)(=O)=O)c3)n[nH]c2cc1-c1cn[nH]c1`, for which, in data set [3], the “log K” value was 0.74. The IC50 in [4] is 2070 nM; in data set [1], 141 nM; in [2], 9.76 nM; in data set [5], over 10000 nM.
On to `CCOc1ccc2[nH]nc(-c3ccc(NC(C)=O)cc3)c2c1`, for which the IC50 in data set [1] stood at 169 nM; in data set [2] it was 438 nM.
As to `c1ccc(-c2[nH]nc3ccccc23)cc1`, the 50% inhibitory concentration (IC50) in [2] was 2100 nM.
In the case of `CCOc1cc2c(-c3cccc(NC(C)=O)c3)n[nH]c2cc1C#N`, in [3], the “log K” value was determined as 0.87. The IC50 came out at 9720 nM in data set [4], 43 nM in [1], 32 nM in data set [2] and 6380 nM in [5].
In the case of `CCOc1ccc2[nH]nc(-c3cccc(C(N)=O)c3)c2c1`, the IC50 was found to be 42.8 nM in data set [1] and 189 nM in data set [2].
The compound `CCc1cccc(CC)c1NC(=O)c1nn(C)c2c1CCc1cnc(Nc3ccc(C(=O)NC4CCN(C)CC4)cc3OC(F)(F)F)nc1-2` came in with an IC50 in [5] of 1250 nM.
With `Cn1cc(-c2cc3[nH]nc(-c4cccc(S(N)(=O)=O)c4)c3cc2NC2CCCCC2)cn1`, in [6], the bioavailability stood at 2.3%. The same compound returned a maximum concentration (Cmax) in data set [7] of 1.4 ng/mL. For the same compound, in [8], the area under the curve (AUC) came out at 11.5 ng·h/mL. Moreover, the Vd in data set [9] came out at 2.8 L/kg. The clearance in data set [10] amounted to 33 mL/min/kg. Besides, the remaining at 1 h, 2 µM in data set [11] worked out at 69%. The half-inhibitory concentration (IC50) is over 5000 nM in data set [12]; 20.5 nM in data set [4]; 37 nM in data set [1]; 10.4 nM in data set [2]; 152 nM in [5]. For the same compound, in data set [13], the Papp came out at 2.69 ×10⁻⁶ cm/s. In data set [3], the “log K” value came to 0.92.
Take `Cc1cc(N2CCOCC2)ccc1Nc1nc(NC2CCCCC2)c2nc[nH]c2n1`: the IC50 in data set [5] is over 10000 nM.
